In ChEMBL document CHEMBL1165867, “Synthesis, structure and structure-activity relationship analysis of caffeic acid amides as potential antimicrobials” (2010):
Values after ≈ are worked out from the molar mass of the structure shown.

How the values were obtained:
Test in all cases: microbe, parasite or virus in culture
Assay type in all cases: functional
Escherichia coli = settings: ATCC 35218, 24 h
Description: Antibacterial activity against Escherichia coli ATCC 35218 after 24 hrs by MTT assay

Aspergillus niger = settings: ATCC 16404, 48 h
Description: Antifungal activity against Aspergillus niger ATCC 16404 after 48 hrs by MTT assay

Trichophyton rubrum = settings: ATCC 10218, 48 h
Description: Antifungal activity against Trichophyton rubrum ATCC 10218 after 48 hrs by MTT assay

Bacillus subtilis = settings: ATCC 6633, 24 h
Description: Antibacterial activity against Bacillus subtilis ATCC 6633 after 24 hrs by MTT assay

Pseudomonas fluorescens = settings: ATCC 13525, 24 h
Description: Antibacterial activity against Pseudomonas fluorescens ATCC 13525 after 24 hrs by MTT assay

Staphylococcus aureus = settings: ATCC 6538, 24 h
Description: Antibacterial activity against Staphylococcus aureus ATCC 6538 after 24 hrs by MTT assay

Candida albicans = settings: ATCC 10231, 48 h
Description: Antifungal activity against Candida albicans ATCC 10231 after 48 hrs by MTT assay

## O=C(/C=C/c1ccc(O)c(O)c1)Nc1ccc(F)cc1
Escherichia coli
  MIC: > 50 µg/mL
Aspergillus niger
  MIC: > 50 µg/mL
Trichophyton rubrum
  MIC: > 50 µg/mL
Bacillus subtilis
  MIC: 7.95 µg/mL (≈ 29.1 µM)
Pseudomonas fluorescens
  MIC: > 50 µg/mL
Staphylococcus aureus
  MIC: > 50 µg/mL
Candida albicans
  MIC: > 50 µg/mL

## COc1cccc(NC(=O)/C=C/c2ccc(O)c(O)c2)c1
Bacillus subtilis
  MIC: 50 µg/mL (≈ 175 µM)
Pseudomonas fluorescens
  MIC: > 50 µg/mL
Staphylococcus aureus
  MIC: > 50 µg/mL
Candida albicans
  MIC: 44.7 µg/mL (≈ 157 µM)

## COc1ccc(NC(=O)/C=C/c2ccc(O)c(O)c2)cc1
Escherichia coli
  MIC: > 50 µg/mL
Aspergillus niger
  MIC: > 50 µg/mL
Trichophyton rubrum
  MIC: > 50 µg/mL
Bacillus subtilis
  MIC: 3.12 µg/mL (≈ 10.9 µM)
Pseudomonas fluorescens
  MIC: > 50 µg/mL
Staphylococcus aureus
  MIC: 50 µg/mL (≈ 175 µM)
Candida albicans
  MIC: 42.8 µg/mL (≈ 150 µM)

## CCNC(=O)/C=C/c1ccc(O)cc1
Bacillus subtilis
  MIC: > 50 µg/mL
Pseudomonas fluorescens
  MIC: > 50 µg/mL
Staphylococcus aureus
  MIC: 45.4 µg/mL (≈ 237 µM)
Candida albicans
  MIC: 50 µg/mL (≈ 261 µM)

## O=C(/C=C/c1ccc(O)c(O)c1)Nc1cccc([N+](=O)[O-])c1
Bacillus subtilis
  MIC: > 50 µg/mL
Pseudomonas fluorescens
  MIC: > 50 µg/mL
Staphylococcus aureus
  MIC: > 50 µg/mL
Candida albicans
  MIC: > 50 µg/mL

## O=C(/C=C/c1ccc(O)c(O)c1)Nc1ccc([N+](=O)[O-])cc1
Escherichia coli
  MIC: > 50 µg/mL
Aspergillus niger
  MIC: > 50 µg/mL
Trichophyton rubrum
  MIC: > 50 µg/mL
Bacillus subtilis
  MIC: 15.5 µg/mL (≈ 51.6 µM)
Pseudomonas fluorescens
  MIC: > 50 µg/mL
Staphylococcus aureus
  MIC: > 50 µg/mL
Candida albicans
  MIC: 49.4 µg/mL (≈ 165 µM)

## O=C(/C=C/c1ccc(O)c(O)c1)N(c1ccccc1)c1ccccc1
Bacillus subtilis
  MIC: > 50 µg/mL
Pseudomonas fluorescens
  MIC: > 50 µg/mL
Staphylococcus aureus
  MIC: > 50 µg/mL
Candida albicans
  MIC: > 50 µg/mL

## O=C(/C=C/c1ccc(O)c(O)c1)Nc1ccccc1[N+](=O)[O-]
Bacillus subtilis
  MIC: > 50 µg/mL
Pseudomonas fluorescens
  MIC: > 50 µg/mL
Staphylococcus aureus
  MIC: > 50 µg/mL
Candida albicans
  MIC: > 50 µg/mL

## O=C(/C=C/c1ccc(O)c(O)c1)Nc1ccccc1Cl
Bacillus subtilis
  MIC: 45.8 µg/mL (≈ 158 µM)
Pseudomonas fluorescens
  MIC: 41.2 µg/mL (≈ 142 µM)
Staphylococcus aureus
  MIC: > 50 µg/mL
Candida albicans
  MIC: 42.8 µg/mL (≈ 148 µM)

## O=C(/C=C/c1ccc(O)c(O)c1)Nc1ccccc1Br
Bacillus subtilis
  MIC: 49.5 µg/mL (≈ 148 µM)
Pseudomonas fluorescens
  MIC: 42.2 µg/mL (≈ 126 µM)
Staphylococcus aureus
  MIC: > 50 µg/mL
Candida albicans
  MIC: 27.5 µg/mL (≈ 82.3 µM)

## O=C(/C=C/c1ccc(O)c(O)c1)Nc1cccc(F)c1
Bacillus subtilis
  MIC: 46.7 µg/mL (≈ 171 µM)
Pseudomonas fluorescens
  MIC: > 50 µg/mL
Staphylococcus aureus
  MIC: > 50 µg/mL
Candida albicans
  MIC: > 50 µg/mL

## O=C(/C=C/c1ccc(O)c(O)c1)Nc1cccc(Cl)c1
Bacillus subtilis
  MIC: 50 µg/mL (≈ 173 µM)
Pseudomonas fluorescens
  MIC: > 50 µg/mL
Staphylococcus aureus
  MIC: 49.2 µg/mL (≈ 170 µM)
Candida albicans
  MIC: > 50 µg/mL

## O=C(/C=C/c1ccc(O)c(O)c1)Nc1cccc(Br)c1
Bacillus subtilis
  MIC: 50 µg/mL (≈ 150 µM)
Pseudomonas fluorescens
  MIC: > 50 µg/mL
Staphylococcus aureus
  MIC: > 50 µg/mL
Candida albicans
  MIC: > 50 µg/mL

## Cc1ccc(NC(=O)/C=C/c2ccc(O)c(O)c2)cc1
Escherichia coli
  MIC: > 50 µg/mL
Aspergillus niger
  MIC: > 50 µg/mL
Trichophyton rubrum
  MIC: > 50 µg/mL
Bacillus subtilis
  MIC: 1.18 µg/mL (≈ 4.38 µM)
Pseudomonas fluorescens
  MIC: 42.2 µg/mL (≈ 157 µM)
Staphylococcus aureus
  MIC: > 50 µg/mL
Candida albicans
  MIC: > 50 µg/mL

## O=C(/C=C/c1ccc(O)c(O)c1)Nc1ccc(Cl)cc1
Escherichia coli
  MIC: > 50 µg/mL
Aspergillus niger
  MIC: > 50 µg/mL
Trichophyton rubrum
  MIC: > 50 µg/mL
Bacillus subtilis
  MIC: 6.25 µg/mL (≈ 21.6 µM)
Pseudomonas fluorescens
  MIC: 50 µg/mL (≈ 173 µM)
Staphylococcus aureus
  MIC: 46.8 µg/mL (≈ 162 µM)
Candida albicans
  MIC: > 50 µg/mL

## O=C(/C=C/c1ccc(O)c(O)c1)Nc1ccc(Br)cc1
Escherichia coli
  MIC: > 50 µg/mL
Aspergillus niger
  MIC: > 50 µg/mL
Trichophyton rubrum
  MIC: > 50 µg/mL
Bacillus subtilis
  MIC: 3.89 µg/mL (≈ 11.6 µM)
Pseudomonas fluorescens
  MIC: 50 µg/mL (≈ 150 µM)
Staphylococcus aureus
  MIC: > 50 µg/mL
Candida albicans
  MIC: > 50 µg/mL

## Cc1ccccc1NC(=O)/C=C/c1ccc(O)c(O)c1
Bacillus subtilis
  MIC: 35 µg/mL (≈ 130 µM)
Pseudomonas fluorescens
  MIC: 42.5 µg/mL (≈ 158 µM)
Staphylococcus aureus
  MIC: > 50 µg/mL
Candida albicans
  MIC: > 50 µg/mL

## Cc1cccc(NC(=O)/C=C/c2ccc(O)c(O)c2)c1
Bacillus subtilis
  MIC: 40.2 µg/mL (≈ 149 µM)
Pseudomonas fluorescens
  MIC: 38.8 µg/mL (≈ 144 µM)
Staphylococcus aureus
  MIC: 45.6 µg/mL (≈ 169 µM)
Candida albicans
  MIC: > 50 µg/mL

## O=C(/C=C/c1ccc(O)c(O)c1)Nc1ccccc1F
Bacillus subtilis
  MIC: 50 µg/mL (≈ 183 µM)
Pseudomonas fluorescens
  MIC: > 50 µg/mL
Staphylococcus aureus
  MIC: > 50 µg/mL
Candida albicans
  MIC: 33.3 µg/mL (≈ 122 µM)

## COc1ccccc1NC(=O)/C=C/c1ccc(O)c(O)c1
Bacillus subtilis
  MIC: 39.8 µg/mL (≈ 140 µM)
Pseudomonas fluorescens
  MIC: 13.2 µg/mL (≈ 46.3 µM)
Staphylococcus aureus
  MIC: 47.4 µg/mL (≈ 166 µM)
Candida albicans
  MIC: > 50 µg/mL

## CN(C(=O)/C=C/c1ccc(O)c(O)c1)c1ccccc1
Bacillus subtilis
  MIC: > 50 µg/mL
Pseudomonas fluorescens
  MIC: > 50 µg/mL
Staphylococcus aureus
  MIC: > 50 µg/mL
Candida albicans
  MIC: > 50 µg/mL

## O=C(/C=C/c1ccc(O)c(O)c1)Nc1ccccc1
Bacillus subtilis
  MIC: 28.4 µg/mL (≈ 111 µM)
Pseudomonas fluorescens
  MIC: > 50 µg/mL
Staphylococcus aureus
  MIC: 41.5 µg/mL (≈ 163 µM)
Candida albicans
  MIC: 50 µg/mL (≈ 196 µM)

## CCNC(=O)/C=C/c1ccc(O)c(O)c1
Bacillus subtilis
  MIC: > 50 µg/mL
Pseudomonas fluorescens
  MIC: > 50 µg/mL
Staphylococcus aureus
  MIC: > 50 µg/mL
Candida albicans
  MIC: > 50 µg/mL

## CCN(CC)C(=O)/C=C/c1ccc(O)c(O)c1
Bacillus subtilis
  MIC: > 50 µg/mL
Pseudomonas fluorescens
  MIC: > 50 µg/mL
Staphylococcus aureus
  MIC: > 50 µg/mL
Candida albicans
  MIC: > 50 µg/mL

## O=C(O)/C=C/c1ccc(O)c(O)c1 [CAFFEIC ACID]
Bacillus subtilis
  MIC: > 50 µg/mL
Pseudomonas fluorescens
  MIC: > 50 µg/mL
Staphylococcus aureus
  MIC: > 50 µg/mL
Candida albicans
  MIC: > 50 µg/mL

## O=C(O)/C=C/c1ccc(O)cc1 [COUMARIC ACID]
Bacillus subtilis
  MIC: > 50 µg/mL
Pseudomonas fluorescens
  MIC: > 50 µg/mL
Staphylococcus aureus
  MIC: > 50 µg/mL
Candida albicans
  MIC: > 50 µg/mL

## NC[C@H]1O[C@H](O[C@H]2[C@H](O)[C@@H](O[C@H]3O[C@H](CO)[C@@H](O)[C@H](N)[C@H]3O)[C@H](N)C[C@@H]2N)[C@H](O)[C@@H](O)[C@@H]1O [KANAMYCIN]
Bacillus subtilis
  MIC: 0.39 µg/mL (≈ 0.805 µM)
Pseudomonas fluorescens
  MIC: 5.08 µg/mL (≈ 10.5 µM)
Staphylococcus aureus
  MIC: 1.28 µg/mL (≈ 2.64 µM)

## CC1(C)S[C@@H]2[C@H](NC(=O)Cc3ccccc3)C(=O)N2[C@H]1C(=O)O [PENICILLIN G]
Bacillus subtilis
  MIC: 0.78 µg/mL (≈ 2.33 µM)
Staphylococcus aureus
  MIC: 1.39 µg/mL (≈ 4.16 µM)
